Tests used:
Assay type in all cases: in vivo
[1] = tested on: morning glory; assay: Greenhouse trial: castor oil ethoxylate derivatives with glyphosate, morning glory (Example 25); conditions: 300 g ae/HA glyphosate; 4 weeks after treatment; ranking from picture
Description: (§1) A greenhouse trial was conducted by spraying solutions of 300 g ae/HA of IPA-glyphosate on wheat. The glyphosate formulation was based on 360 g/L IPA containing 10% active surfactant. Wheat was used as the “weed” because it germinates smoothly and it is a good species for herbicide study. The untreated check (UTC) was sprayed with only water. Pot 150 was sprayed with glyphosate only solution. Pot 149 was sprayed with glyphosate solution containing tallowamine-15EO (TAE15). TAE15 is the most common surfactant used to enhance glyphosate efficacy.
The condition and treatment of example 25 was identical to example 23 except that example 25 used morning glory instead of wheat.

[2] = tested on: wheat; assay: Greenhouse trial: bioefficacy enhancing effect of surfactants on glyphosate, wheat (Example 23); conditions: 300 g ae/HA IPA-glyphosate sprayed on wheat; 360 g/L IPA formulation with 10% active surfactant; 4 weeks after treatment; from fresh weight
Description: as §1
Plants were sprayed with glyphosate solutions containing surfactant according to the present invention. Table below lists the various surfactants and their corresponding pots. Percent growth control data for 4 weeks after treatment is also shown in this table as well. Percent growth control data was obtained from the fresh weight of these plants. The data clearly indicates glyphosate solutions containing surfactant according to the present invention provides better growth control than glyphosate only, thus acting as an adjuvant. In many cases the adjuvancy is equal to that of TAE15.

[3] = tested on: wheat; assay: Greenhouse trial: hydroxylated soybean oil derivatives with glyphosate, wheat, visual inspection (Example 24); conditions: 300 g ae/HA IPA-glyphosate sprayed on wheat, 10% active surfactant, 4 weeks after treatment
Description: as §1
A separate set of test was conducted for these surfactants. The condition and treatment of example 24 was identical to example 23. […] In this case % growth control is a qualitative data obtained by visual inspection of the plants. The data clearly indicates glyphosate solutions containing surfactant according to the present invention provides enhanced growth control than glyphosate only, thus acting as an adjuvant.

CC(C)N.O=C(O)CNCP(=O)(O)O [IPA Glyphosate alone, IPA-glyphosate]
morningglory control compared with tallowamine-15EO [1]: didn't show much control
% Growth Control [2]: 66%
% Growth Control (qualitative) [3]: 55%

— patent publication US10000437B2, “Nitrogen containing surfactants with alkoxylation on the hydroxyl group of fatty chains” (Akzo Nobel Chemicals International B.V., priority 2013, dated 2018)
